Drawing on patent US6372740B1, “2-aryl-8-oxodihydropurine derivative, process for the producing the same, medicinal compositions containing the same, and intermediates thereof” (Dainippon Pharmaceutical Co., Ltd., priority 1997, dated 2002), this text covers IC50 and melting point for 48 compounds.

For orientation: IC50 means the concentration that gives 50% inhibition. A word on the melting point: it is the temperature of the solid-liquid transition.

One data set concerns the target T1, BZω3 receptor (Rattus norvegicus, UniProt P16257).
T1 construct: from tissue; host or cells: rat (Wistar) kidney membrane fraction
As to the kind of experiment: BZω3 (peripheral) benzodiazepine receptor binding assay, [3H] 4'-chlorodiazepam (Ro 5-4864). Particulars: rat kidney membrane, [3H] Ro 5-4864 0.5 nM, 150 minutes at 0° C.; read-out: ω3 IC50. As for the experimental part:
Experiment 1: Central (ω1,ω2) and Peripheral (ω3) Benzodiazepine Receptor Binding Assays
BZω1 and BZω2 receptor binding assays and the preparation of receptor membrane fractions therefor were carried out according to the method of Stephens, D. N. et al. [cf., J. Pharmacol. Exp. Ther., 253, 334-343 (1990)], and BZω3 receptor binding assay and the preparation of receptor membrane fraction therefor were done according to the method of Schoemaker, H. [cf, J. Pharmacol. Exp. Ther., 225, 61-69 (1983)] each with slight modification.
Receptor membrane fractions for ω1, ω2 and ω3 were prepared from the cerebellum (ω1), spinal cord (ω2) or kidney (ω3) in 7-8 week old male rats of Wistar strain, respectively, by the procedure described below.
After the cerebellum or spinal cord was homogenized with 20 volumes of ice-cold 50 mM Tris-citrate buffer (pH 7.1), the homogenate was centrifuged for 15 minutes at 40,000 g. The pellet obtained was washed 4 times by the same procedure, and frozen and stored for 24 hours at −60° C. The resulting pellet, after being thawed, washed with the buffer and centrifuged, was suspended in the buffer I for the binding assay (50 mM Tris-HCl buffer containing 120 mM NaCl, 5 mM KCl, 2 mM CaCl2 and 1 mM MgCl2; pH 7.4) and the suspension thus obtained (containing 1 g wet tissue/40 ml) was used for the BZω1 and BZω2receptor binding assays. On the other hand, the kidney was homogenized with 20 volumes of the ice-cold buffer II for the binding assay (50 mM Na-K phosphate buffer containing 100 mM NaCl; pH 7.4), and the mixture was filtered through 4 sheets of gauze, and centrifuged for 20 minutes at 40,000 g. The pellet obtained was suspended in the buffer II and the suspension (containing 1 g wet tissue/100 ml) was used for the binding assay as BZω3 receptor membrane source.
[^3H] Flumazenil (Ro 15-1788) (final concentration: 0.3 nM for ω1, and 1 nM for ω2) and flunitrazepam (final concentration: 10 μM) were used for the BZω1 or BZω2 receptor binding assays as the isotope-labeled and unlabeled ligands, respectively. For the BZω3 receptor binding assay, [^3H] 4′-chlorodiazepam (7-chloro-1,3-dihydro-1-methyl-5-(4-chlorophenyl)-2H-1,4-diazepin-2-one) (Ro 5-4864) (final concentration: 0.5 nM) and diazepam (final concentration: 100 μM) were used as the isotope-labeled and unlabeled ligands, respectively. Incubation was performed for 30 minutes at 37° C. in the BZω1 or BZω2 receptor binding assays, and for 150 minutes at 0° C. in the BZω3 receptor binding assay. The BZω1 or BZω2 receptor binding assays were carried out in the presence of bicuculline (final concentration: 100 μM).
The binding assay was performed by the following procedure. After adding each test compound at certain known concentrations, a [^3H] ligand, and the buffer I or II to each test tube, each assay was started by addition of membrane preparation (total volume of 1 ml). After incubation, the assay was terminated by filtration with suction through a Whatman GF/B glass fiber filter using a cell harvester (Brandel, USA). The filters were rapidly washed 3 times with 5 ml of ice-cold 50 mM Tris-HCl buffer (pH 7.7) for ω1 and ω2, or the buffer II for ω3, and transferred to scintillation vials containing 10 ml liquid scintillation cocktail (ACS-II, Amersham, USA). After being allowed to stand for a specific period, retained radioactivity was counted by a liquid scintillation spectrometer. Specific binding of [^3H] ligands was calculated as the difference between amounts of radioactivity bound in the presence and absence of excess unlabeled ligands. The concentration of the test compounds causing 50% inhibition of specific binding of the [3H] ligand (IC50) was determined by probit analysis.
In the case of `CN(C(=O)Cn1c(=O)n(C)c2nc(-c3ccc(Cl)cc3)ncc21)c1ccccc1` [Example 4], the IC50 came out at 1.6 nM. The same measure, in the same setting: the result for `COc1ccc(-c2ncc3c(n2)n(C)c(=O)n3CC(=O)N(C)c2ccccc2)cc1` [Example 6] reads 2 nM; that for `CCN(C(=O)Cn1c(=O)n(C)c2nc(-c3cccc(Cl)c3)ncc21)c1ccccc1` [Example 10], 1 nM. On the same count and under the same terms, the result for `CCN(C(=O)Cn1c(=O)n(C)c2nc(-c3ccc(OC)cc3)ncc21)c1ccccc1` [Example 13] reads 2.9 nM; that for `CCCN(CCC)C(=O)Cn1c(=O)n(C)c2nc(-c3ccccc3)ncc21` [Example 26], 2.3 nM; that for `CCCN(CCC)C(=O)Cn1c(=O)n(C)c2nc(-c3ccc(F)cc3)ncc21` [Example 29], 4.5 nM. Consider `CN(C(=O)Cn1c(=O)n(C)c2nc(-c3cccnc3)ncc21)c1ccccc1` [Example 37], for which the IC50 came out at 2.8 nM. As for `CN(Cc1ccccc1)C(=O)Cn1c(=O)n(C)c2nc(-c3ccccc3)ncc21` [Example 48, N-benzyl-8,9-dihydro-9-methyl-N-methyl-8-oxo-2-phenyl-7H-purin-7-acetamide], the IC50 was 0.68 nM. As to `CN(Cc1ccc(F)cc1)C(=O)Cn1c(=O)n(C)c2nc(-c3ccccc3)ncc21` [Example 69, N-(4-fluorobenzyl)-8,9-dihydro-9-methyl-N-methyl-8-oxo-2-phenyl-7H-purin-7-acetamide], the half-inhibitory concentration (IC50) worked out at 0.55 nM. With `CCCN(CCC)C(=O)Cn1c(=O)[nH]c2cnc(-c3ccc(Cl)cc3)nc21` [Example 97, 2-(4-chlorophenyl)-7,8-dihydro-8-oxo-N,N-dipropyl-9H-purin-9-acetamide], the IC50 was found to be 0.35 nM. Same read-out and setting: the result for `CCN(Cc1ccccc1)C(=O)Cn1c(=O)n(C)c2cnc(-c3ccccc3)nc21` [Example 146, N-benzyl-N-ethyl-7,8-dihydro-7-methyl-8-oxo-2-phenyl-9H-purin-9-acetamide] reads 0.85 nM.

System in another data set: not given
Experiment: not given
Settings: not given
For the compound `CN(C(=O)Cn1c(=O)n(C)c2nc(-c3ccc(Cl)cc3)ncc21)c1ccccc1` [Example 4], the melting point was in the range of 188 to 190 °C. Regarding `COc1ccc(-c2ncc3c(n2)n(C)c(=O)n3CC(=O)N(C)c2ccccc2)cc1` [Example 6], the melting point was 176 to 178 °C.

With `CCn1c(=O)n(CC(=O)N(C)c2ccccc2)c2cnc(-c3ccccc3)nc21` [Example 8], the melting point fell in the range of 160 to 161 °C. As for `CCN(C(=O)Cn1c(=O)[nH]c2nc(-c3ccccc3)ncc21)c1ccccc1` [Example 9], the melting point lay in the range of 281 to 284 °C. Same read-out and setting: next, `CCN(C(=O)Cn1c(=O)n(C)c2nc(-c3cccc(Cl)c3)ncc21)c1ccccc1` [Example 10]: 195 to 196 °C; `CCN(C(=O)Cn1c(=O)n(C)c2nc(-c3ccc(Cl)cc3)ncc21)c1ccccc1` [Example 11]: 174 to 175 °C. Take `CCN(C(=O)Cn1c(=O)n(C)c2nc(-c3ccc(OC)cc3)ncc21)c1ccccc1` [Example 13]: the melting point is 179 to 181 °C. Compound `CCN(C(=O)Cn1c(=O)n(CC)c2nc(-c3ccccc3)ncc21)c1ccccc1` [Example 16] returned a melting point of 165 to 167 °C.

For `CCCn1c(=O)n(CC(=O)N(CC)c2ccccc2)c2cnc(-c3ccccc3)nc21` [Example 17], the melting point was 138 to 139 °C. The compound `CCN(CC)C(=O)Cn1c(=O)n(C)c2nc(-c3ccccc3)ncc21` [Example 19] had a melting point of 207 to 209 °C. Consider `CCN(CC)C(=O)Cn1c(=O)n(CC)c2nc(-c3ccccc3)ncc21` [Example 25], for which the melting point was in the range of 148 to 150 °C. In turn, `CCCN(CCC)C(=O)Cn1c(=O)n(C)c2nc(-c3ccccc3)ncc21` [Example 26] showed a melting point of 133 to 134 °C. Same read-out and setting: next, `CCCN(CCC)C(=O)Cn1c(=O)n(C)c2nc(-c3ccc(F)cc3)ncc21` [Example 29]: 154 to 155 °C; `CCCN(CCC)C(=O)Cn1c(=O)n(CC)c2nc(-c3ccccc3)ncc21` [Example 33]: 134 to 135 °C. Consider `CCCN(CC)C(=O)Cn1c(=O)n(C)c2nc(-c3ccccc3)ncc21` [Example 34], for which the melting point was in the range of 150 to 151 °C. In turn, `CN(C)C(=O)Cn1c(=O)n(C)c2nc(-c3ccccc3)ncc21` [Example 35] registered a melting point of 204 to 206 °C. `CN(C(=O)Cn1c(=O)n(C)c2nc(-c3cccnc3)ncc21)c1ccccc1` [Example 37] displayed a melting point of 209 to 211 °C.

`CCN(C(=O)Cn1c(=O)n(C)c2nc(-c3cccnc3)ncc21)c1ccccc1` [Example 38] came in with a melting point of 195 to 196 °C.

In turn, `CCN(C(=O)Cn1c(=O)n(C)c2nc(-c3ccccc3)nc(-c3ccccc3)c21)c1ccccc1` [Example 41] registered a melting point of 185 to 187 °C.

Take `CCCN(C(=O)Cn1c(=O)n(C)c2nc(-c3ccccc3)ncc21)c1ccccc1` [Example 60]: the melting point was 221 to 223 °C. `CCCN(C(=O)Cn1c(=O)n(CC)c2nc(-c3ccccc3)ncc21)c1ccccc1` [Example 61] displayed a melting point of 168 to 170 °C. As for `CCCCN(C(=O)Cn1c(=O)n(C)c2nc(-c3ccccc3)ncc21)c1ccccc1` [Example 62], the melting point is 207 to 209 °C. Take `CCCCN(CCCC)C(=O)Cn1c(=O)n(C)c2nc(-c3ccccc3)ncc21` [Example 63]: the melting point fell in the range of 138 to 139 °C.

Take `CCN(Cc1ccc(Cl)cc1)C(=O)Cn1c(=O)n(C)c2nc(-c3ccccc3)ncc21` [Example 77]: the melting point fell in the range of 198 to 199 °C. Take `CN(C(=O)Cn1c(=O)[nH]c2cnc(-c3cccnc3)nc21)c1ccccc1` [Example 84]: the melting point fell in the range of 268 to 270 °C. The same measure, in the same setting: next, `CCN(CC)C(=O)Cn1c(=O)[nH]c2cnc(-c3ccccc3)nc21` [Example 85]: 222 to 224 °C; `CN(C)C(=O)Cn1c(=O)[nH]c2cnc(-c3ccccc3)nc21` [Example 86]: greater than 300 °C. On the same count and under the same terms, the result for `CCCCN(CCCC)C(=O)Cn1c(=O)[nH]c2cnc(-c3ccccc3)nc21` [Example 95] reads 196 to 198 °C; that for `CCCN(C(=O)Cn1c(=O)[nH]c2cnc(-c3ccccc3)nc21)c1ccccc1` [Example 96], 258 to 260 °C. As for `CN(C(=O)Cn1c(=O)[nH]c2cnc(-c3ccccc3)nc21)c1ccccc1` [Example 98], the melting point is 286 to 287 °C.

As for `CCCN(CCC)C(=O)Cn1c(=O)n(CCC)c2cnc(-c3ccccc3)nc21` [Example 120], the melting point is 125 to 127 °C. The same measure, in the same setting: the result for `CCCCn1c(=O)n(CC(=O)N(CCC)CCC)c2nc(-c3ccccc3)ncc21` [Example 122] reads 129 to 130 °C; that for `CCN(CC)C(=O)Cn1c(=O)n(C)c2cnc(-c3ccccc3)nc21` [Example 124], 204 to 206 °C; that for `CCN(CC)C(=O)Cn1c(=O)n(CC)c2cnc(-c3ccccc3)nc21` [Example 125], 198 to 200 °C. `CCCn1c(=O)n(CC(=O)N(CC)CC)c2nc(-c3ccccc3)ncc21` [Example 126]: the melting point was in the range of 141 to 143 °C. `CN(C)C(=O)Cn1c(=O)n(C)c2cnc(-c3ccccc3)nc21` [Example 127] yielded a melting point of 262 to 264 °C. As to `CCn1c(=O)n(CC(=O)N(C)C)c2nc(-c3ccccc3)ncc21` [Example 128], the melting point lay within 187 to 189 °C. Turning to `CCCCN(CCCC)C(=O)Cn1c(=O)n(C)c2cnc(-c3ccccc3)nc21` [Example 134], the melting point lay within 192 to 193 °C. Same read-out and setting: the result for `CCCCN(CCCC)C(=O)Cn1c(=O)n(CC)c2cnc(-c3ccccc3)nc21` [Example 135] reads 135 to 136 °C; that for `CCCn1c(=O)n(CC(=O)N(C)c2ccccc2)c2nc(-c3ccccc3)ncc21` [Example 158], 183 to 185 °C; that for `CCN(C(=O)Cn1c(=O)n(CC)c2cnc(-c3ccccc3)nc21)c1ccccc1` [Example 167], 154 to 155 °C. `CCCn1c(=O)n(CC(=O)N(CC)c2ccccc2)c2nc(-c3ccccc3)ncc21` [Example 168] registered a melting point of 140 to 142 °C. In turn, `CCCN(C(=O)Cn1c(=O)n(C)c2cnc(-c3ccccc3)nc21)c1ccccc1` [Example 169] returned a melting point of 174 to 176 °C.

For `CN(C(=O)Cn1c(=O)n(C)c2cnc(-c3cccnc3)nc21)c1ccccc1` [Example 171], the melting point fell in the range of 216 to 217 °C.
